Laboratory results as given in patent US20110152085A1, “Herbicidal Compositions Comprising Flufenacet” (BAYER CROPSCIENCE AG, priority 2009, published 2011).

Assays:
HORVS = experiment: Greenhouse trial, selective post-emergence (PO) action, crop plant; format: in vivo, Hordeum vulgare, summer barley; conditions: PO application, g of AS/ha: (A) 120, (B) 600
Method: (§1) In the standard design of the test, seeds of various broad-leaved weed and weed grass biotypes (origins) were sown in a 8-13 cm diameter pot filled with natural soil of a standard field soil (loamy silt; non-sterile) and covered with a covering soil layer of about 1 cm. The pots were then cultivated in a greenhouse (12-16 h of light, temperature day 20-22° C., night 15-18° C.) until the time of application. The pots were treated on a laboratory track sprayer with spray liquors comprising the compositions according to the invention, mixtures of the prior art or components used individually. Application of the active compounds or active compound combinations formulated as WG, WP, EC or otherwise was carried out at the appropriate growth stages of the plants. The application rate for the spray application was 100-600 l of water/ha. After the treatment, the plants were returned to the greenhouses.
(§2) About 3 weeks after the application, the soil action or/and foliar action was assessed visually according to a scale of 0-100% in comparison to an untreated comparative group: 0%=no noticeable effect compared to the untreated comparative group; 100%=full effect compared to the untreated comparative group. […]

STEME [1] = experiment: Greenhouse trial, pre-sowing application 7 days prior to sowing, weeds; format: in vivo, Stellaria media; conditions: g of AS/ha: (A) 90, (B) 300
Method: as §1, §2

ALOMY = experiment: Greenhouse trial, post-emergence (PO) action against weeds; format: in vivo, Alopecurus myosuroides; conditions: PO application; g of AS/ha: (A) 120, (B) 600
Method: as §1, §2

VIOAR [2] = experiment: Greenhouse trial, pre-emergence (PE) soil application, action against weeds; format: in vivo, Viola arvensis; conditions: g of AS/ha: (A) 90, (B) 300, (C) mefenpyr 300, about 3 weeks after application
Method: as §1, §2

STEME [3] = experiment: Greenhouse trial, PE application on sensitive and resistant biotypes; format: in vivo, Stellaria media; conditions: g of AS/ha: (A) 120, (B) 600, iodosulfuron 10; for STEME resistant activity (visual, scale 0-100%): resistant biotype; for STEME sensitive activity (visual, scale 0-100%): sensitive biotype
Method: as §1
(§3) About 3 weeks after the application, the soil action or/and foliar action was assessed visually according to a scale of 0-100% in comparison to an untreated comparative group: 0%=no noticeable effect compared to the untreated comparative group; 100%=full effect compared to the untreated comparative group.
(§4) (notes: the term “seeds” also includes vegetative propagation forms such as, for example, rhizome pieces; abbreviations used: h light=hours of illumination, g of AS/ha=gram of active substance per hectare, l/ha=liter per hectare, S=sensitive, R=resistant) • 1. Pre-emergence action against weeds: seeds of various broad-leaved weed and weed grass biotypes (origins) were sown in a 8-13 cm diameter pot filled with natural soil of a standard field soil (loamy silt; non-sterile) and covered with a covering soil layer of about 1 cm. The pots were then cultivated in a greenhouse (12-16 h of light, temperature day 20-22° C., night 15-18° C.) until the time of application. The pots were treated at the BBCH stage 00-10 of the seeds/plants on a laboratory track sprayer with spray liquors comprising the compositions according to the invention, mixtures or components used individually, as WG, WP, EC or other formulations. The application rate for the spray application was 100-600 l of water/ha. After the treatment, the plants were returned to the greenhouses and, when required, treated with fertilizer and watered. • 2. Post-emergence action against weeds: seeds of various broad-leaved weed and weed grass biotypes (origins) were sown in a 8-13 cm diameter pot filled with natural soil of a standard field soil (loamy silt; non-sterile) and covered with a covering soil layer of about 1 cm. The pots were then cultivated in a greenhouse (12-16 h of light, temperature day 20-22° C., night 15-18° C.) until the time of application. The pots were treated at various BBCH stages between 11-25 of the seeds/plants, i.e. generally between two to three weeks after the start of the cultivation, on a laboratory track sprayer with spray liquors comprising the compositions according to the invention, mixtures or components used individually, as WG, WP, EC or other formulations. The application rate for the spray application was 100-600 l of water/ha. After the treatment, the plants were returned to the greenhouses and, when required, treated with fertilizer and watered. • 3. Pre-emergence action against weeds with and without incorporation of active compound: seeds of various broad-leaved weed and weed grass biotypes (origins) were sown in a 8-13 cm diameter pot filled with natural soil of a standard field soil (loamy silt; non-sterile). […]

AVEFA [4] = experiment: Greenhouse trial, post-emergence (PO) action against weeds; format: in vivo, Avena fatua; conditions: PO application; g of AS/ha: (A) 120, (B) 600
Method: as §1, §2

AVEFA [5] = experiment: Greenhouse trial, pre-sowing application 7 days prior to sowing, weeds; format: in vivo, Avena fatua; conditions: g of AS/ha: (A) 90, (B) 300
Method: as §1, §2

TRZAS [6] = experiment: Greenhouse trial, pre-sowing application 7 days prior to sowing, crop plant; format: in vivo, Triticum aestivum, summer wheat; conditions: g of AS/ha: (A) 90, (B) 300
Method: as §1, §2

VIOAR [7] = experiment: Greenhouse trial, incorporation of active compound into the soil covering layer, action against weeds; format: in vivo, Viola arvensis; conditions: g of AS/ha: (A) 90, (B) 300, (C) mefenpyr 300
Method: as §1, §2

MATCH = experiment: Greenhouse trial, PE application on sensitive and resistant biotypes; format: in vivo, Matricaria chamomilla; conditions: g of AS/ha: (A) 120, (B) 600, iodosulfuron 10; for MATCH resistant activity (visual, scale 0-100%): resistant biotype; for MATCH sensitive activity (visual, scale 0-100%): sensitive biotype
Method: as §1, §3, §4

LOLPE = experiment: Greenhouse trial, PE application with different soil types; format: in vivo, Lolium perenne; conditions: g of AS/ha: (A) 90, (B) 300
Method: as §1, §3
(§5) (notes: the term “seeds” also includes vegetative propagation forms such as, for example, rhizome pieces; abbreviations used: h light=hours of illumination, g of AS/ha=gram of active substance per hectare, l/ha=liter per hectare, S=sensitive, R=resistant) • 1. Pre-emergence action against weeds: seeds of various broad-leaved weed and weed grass biotypes (origins) were sown in a 8-13 cm diameter pot filled with natural soil of a standard field soil (loamy silt; non-sterile) and covered with a covering soil layer of about 1 cm. The pots were then cultivated in a greenhouse (12-16 h of light, temperature day 20-22° C., night 15-18° C.) until the time of application. The pots were treated at the BBCH stage 00-10 of the seeds/plants on a laboratory track sprayer with spray liquors comprising the compositions according to the invention, mixtures or components used individually, as WG, WP, EC or other formulations. The application rate for the spray application was 100-600 l of water/ha. After the treatment, the plants were returned to the greenhouses and, when required, treated with fertilizer and watered. • 2. Post-emergence action against weeds: seeds of various broad-leaved weed and weed grass biotypes (origins) were sown in a 8-13 cm diameter pot filled with natural soil of a standard field soil (loamy silt; non-sterile) and covered with a covering soil layer of about 1 cm. The pots were then cultivated in a greenhouse (12-16 h of light, temperature day 20-22° C., night 15-18° C.) until the time of application. […]

HORVW [8] = experiment: Greenhouse trial, incorporation of active compound into the soil covering layer, crop plant; format: in vivo, Hordeum vulgare, winter barley; conditions: g of AS/ha: (A) 90, (B) 300, (C) mefenpyr 300
Method: as §1, §2

POAAN = experiment: Greenhouse trial, post-emergence (PO) action against weeds; format: in vivo, Poa annua; conditions: PO application; g of AS/ha: (A) 120, (B) 600
Method: as §1, §2

STEME [9] = experiment: Greenhouse trial, PE application (comparison with pre-sowing method), weeds; format: in vivo, Stellaria media; conditions: g of AS/ha: (A) 90, (B) 300
Method: as §1, §2

HORVW [10] = experiment: Greenhouse trial, selective pre-emergence action (PE application), crop plant; format: in vivo, Hordeum vulgare, winter barley; conditions: g of AS/ha: (A) 90, (B) 300, (C) mefenpyr 300
Method: as §1, §2

TRZAS [11] = experiment: as above; format: in vivo, Triticum aestivum, summer wheat
Method: as §1, §3, §5

TRZAS [12] = experiment: Greenhouse trial, incorporation of active compound into the soil covering layer, crop plant; format: in vivo, Triticum aestivum, summer wheat; conditions: g of AS/ha: (A) 90, (B) 300, (C) mefenpyr 300
Method: as §1, §2

TRZAW [13] = experiment: Greenhouse trial, selective pre-emergence action (PE application), crop plant; format: in vivo, Triticum aestivum, winter wheat; conditions: g of AS/ha: (A) 90, (B) 300, (C) mefenpyr 300
Method: as §1, §2

TRZAW [14] = experiment: Greenhouse trial, incorporation of active compound into the soil covering layer, crop plant; format: in vivo, Triticum aestivum, winter wheat; conditions: g of AS/ha: (A) 90, (B) 300, (C) mefenpyr 300
Method: as §1, §2

AVEFA [15] = experiment: Greenhouse trial, PE application (comparison with pre-sowing method), weeds; format: in vivo, Avena fatua; conditions: g of AS/ha: (A) 90, (B) 300
Method: as §1, §2

[16] = g of AS/ha: (A) 90, (B) 300, (C) mefenpyr 300
[17] = g of AS/ha: (A) 90, (B) 300, Table 3

| Structure (SMILES) | HORVS activity (visual, scale 0-100%) (HORVS) | STEME activity (visual, scale 0-100%) (STEME [1]) | ALOMY activity (visual, scale 0-100%) (ALOMY) | VIOAR activity (visual, scale 0-100%) (VIOAR [2]) | STEME resistant activity (visual, scale 0-100%) (STEME [3]) | STEME sensitive activity (visual, scale 0-100%) (STEME [3]) | AVEFA activity (visual, scale 0-100%) (AVEFA [4]) | AVEFA activity (visual, scale 0-100%) (AVEFA [5]) | TRZAS activity (visual, scale 0-100%) (TRZAS [6]) | VIOAR activity (visual, scale 0-100%) (VIOAR [7]) | MATCH resistant activity (visual, scale 0-100%) (MATCH) | MATCH sensitive activity (visual, scale 0-100%) (MATCH) | LOLPE IU soil activity (visual, scale 0-100%) (LOLPE) | LOLPE IU/EC73 soil activity (visual, scale 0-100%) (LOLPE) | HORVW activity (visual, scale 0-100%) (HORVW [8]) | POAAN activity (visual, scale 0-100%) (POAAN) | STEME activity (visual, scale 0-100%) (STEME [9]) | HORVW activity (visual, scale 0-100%) (HORVW [10]) | TRZAS activity (visual, scale 0-100%) (TRZAS [11]; [16]) | TRZAS activity (visual, scale 0-100%) (TRZAS [11]; [17]) | also measured |
| --- | --- | --- | --- | --- | --- | --- | --- | --- | --- | --- | --- | --- | --- | --- | --- | --- | --- | --- | --- | --- | --- |
| CC(C)N(C(=O)COc1nnc(C(F)(F)F)s1)c1ccc(F)cc1 [(A) flufenacet, N-(4-fluorophenyl)-N-(1-methylethyl)-2-[[5-(trifluoromethyl)-1,3,4-thiadiazol-2-yl]oxy]acetamide] | 40% | 35% | 65% | 0% | 0% | 0% | 70% | 70% | 50% | 0% | 50% | 50% | 95% | 74% | 60% | 60% | 0% | 20% | 20% | 20% | TRZAS activity (visual, scale 0-100%) (TRZAS [12]): 50%; TRZAW activity (visual, scale 0-100%) (TRZAW [13]): 30%; TRZAW activity (visual, scale 0-100%) (TRZAW [14]): 60%; AVEFA activity (visual, scale 0-100%) (AVEFA [15]): 80% |
| CCCN(CCC)c1c([N+](=O)[O-])cc(C(F)(F)F)cc1[N+](=O)[O-] [(B) trifluralin, 2,6-dinitro-N,N-dipropyl-4-(trifluoromethyl)benzenamine] | 20% | 30% | 30% | 0% | 20% | 20% | 20% | 60% | 20% | 10% | 20% | 20% | 55% | 0% | 60% | 40% | 10% | 0% | 0% | 0% | TRZAS activity (visual, scale 0-100%) (TRZAS [12]): 90%; TRZAW activity (visual, scale 0-100%) (TRZAW [13]): 20%; TRZAW activity (visual, scale 0-100%) (TRZAW [14]): 100%; AVEFA activity (visual, scale 0-100%) (AVEFA [15]): 70% |
| COc1nc(C)nc(NC(=O)NS(=O)(=O)c2cc(I)ccc2C(=O)O)n1 [(C) iodosulfuron] |  |  |  |  | 40% | 90% |  |  |  |  | 60% | 100% |  |  |  |  |  |  |  |  |  |
